1 substance from patent US20220145264A1, “CULTURE MEDIUM FOR MAMMALIAN EXPANDED POTENTIAL STEM CELLS, COMPOSITION, AND METHODS THEREOF” (THE UNIVERSITY OF HONG KONG, priority 2019, published 2022) can be followed below.

One test concerns H1-EPSCs. Description: EB formation assay of H1-EPSCs, lineage gene expression. It counts as cell-based, human. The note with it: 5.0 ng/ml supplemented in hEPSCM. The procedure: Porcine and human EPSCs were trypsinised and seeded in gelatinised 6-well plates at a density of 4×10^6 cells/well for pre-differentiation. M15 media supplemented with 20 ng/ml ACTIVIN A (SCI) and 5 μM Rock inhibitor Y-27632 were used to culture the replated cells. The next day, the cells were detached using 0.25% trypsin/EDTA (Gibco, Cat. No. 25500-054) and plated to ultra-low cell attachment U-bottom 96-well plates (Corning, Cat. No. 7007) at a density of 5,000-6,000 cells/well in 200 μl M10 medium. After 7-8 days of growing, the EBs were collected for analysis. 0.25% (v/v) poly-vinyl alcohol (Sigma, Cat. No. 341584) was added in the medium to help cells aggregation.
Total RNA was isolated using an RNeasy Mini Kit (Qiagen, Cat. No. 74106) for cultured cells or RNeasy Micro Kit (Qiagen, Cat. No. 74034) for sorted NANOS3-mCherry^+ cells. RNA was subsequently quantified and treated with gDNA WipeOut to remove genomic DNA. Complementary DNA (cDNA) was prepared using a QuantiTect Reverse Transcription Kit (Qiagen, Cat. No. 205311). RT-qPCR primers or TaqMan Gene Expression Assays (Life Technologies) are listed in Supplementary Table 10 and 11. […] Gene expression was determined relative to GAPDH using the […]. […]

The subject of test [1] is human ES cell (hESC) lines (H1, H9, M1, M10). Description: Culture of human ES cell lines in pEPSCM minus ACTIVIN A (colony formation). In kind it is cell-based. The note with it: removing ACTIVIN A (20 ng/ml) from pEPSCM. The text has this:
Human ESCs have been widely used in studying human embryo development in vitro and hold great potential for regenerative medicine. The finding that inhibition of SRC and Tankyrases is sufficient to convert mouse ESCs to mEPSCs and that these two inhibitors are required for the generation of pEPSCs raises the possibility that similar in vitro culture conditions may also work for other mammalian species. To explore this possibility, four established human ES cell (hESC) lines (H1, H9, Man1 or M1, and Man10 or M10 cells) are cultured in pEPSCM and passaged them up to three times. […] Removing ACTIVIN A (20 ng/ml) from pEPSCM led to considerably fewer cell colonies formed from H1 (<1.0%) and M1 (5.0%) ESC cultures, while none from H9 or M10 (Extended Data FIG. 7a), which is consistent with the inherent between-line heterogeneity of human ESCs. With further refinement of the culture conditions (for example, replacing WH-4-023 with another SRC inhibitor A419259 in hEPSCM, see Methods), morphologically homogenous and stable cell lines were established from single-cell sub-cloned H1 (H1-EPSCs) and M1 cells (M1-EPSCs) (FIG. 3a).

Entries after “also recorded” stand apart in the source; their conditions may differ.

For the substance “ACTIVIN A: Human Recombinant ACTIVIN A cytokine”, in the test on H1-EPSCs, the “embryonic mesendoderm lineage differentiation / lineage gene expression in EBs” value is “stronger propensity for embryonic mesendoderm lineage differentiation; also recorded: substantially increased”. For the same substance, the cell colonies formed in test [1] (H1 ESC culture) is on record as < 1.0%; in test [1] (H9), “none”; in test [1] (M1 ESC culture), 5.0%; in test [1] (M10) it was “none”.
